Experimental data published in patent US10604527B2, “Pyrazine compounds for the treatment of hepatitis B infection” (Hoffmann-La Roche Inc., priority 2016, dated 2020).

system: HBV; assay: HBV inhibition assay in HepG2.2.15 cells (extracellular HBV DNA by qPCR); type: cell-based; settings: Hepatitis B virus, 120 h, extracellular HBV DNA in culture supernatant by qPCR, five days after compound treatment
Protocol: HepG2.2.15 is a stably-transfected cell line containing the HBV genome. It is derived from the hepatoblastoma cell line Hep G2 (American Type Culture Collection, ATCC® HB-8065™) by the published procedures described in reference: M A Selles et al. Proc. Natl. Acad. Sci. USA 1987, 84, 1005-1009. The cell line was maintained in Dulbecco's modified Eagle's medium (DMEM)-F12 medium supplemented with 10% fetal bovine serum, 20 mM L-glutamine, 0.1 mM NEAA, 50 U/mL penicillin, 50 μg/mL streptomycin, and 0.3 mg/mL of G418.
HepG2.2.15 cells were seeded into 96-well plates at a density of 3×10^4 cells per well in 100 μL DMEM/F12 media (Life Science, Cat. #: 11320-033) supplemented with 2.5% fetal bovine serum, 20 mM L-glutamine, 0.1 mM NEAA, 50 U/mL penicillin, 50 U/mL streptomycin and cultured overnight at 37° C. The test compounds were serially half-log diluted in DMSO, then diluted 100 times in culture media. 100 μL diluted solution of tested compounds were added into the plates to reach 0.5% final concentration of DMSO in every well. Five days after compound treatment, culture supernatant was collected for further analysis.
For quantitative PCR detection of extracellular HBV DNA, culture supernatant was processed by 500 μg/mL Proteinase K (Sigma, Cat. #: P2308) digestion at 50° C. for 1 hour. After heat inactivation of the enzyme at 95° C. for 15 minutes, the samples were subjected to HBV DNA quantification by qPCR. The effective compound concentration at which HBV replication inhibited by 50% (EC50) was determined.

First: CC(C)Oc1cnn2c1CN(C(=O)Nc1ccc(F)c(Cl)c1)C(C)C2 (centres unmarked) [Example 1, N-(3-chloro-4-fluoro-phenyl)-3-isopropoxy-6-methyl-6,7-dihydro-4H-pyrazolo[1,5-a]pyrazine-5-carboxamide]
Second: CC1Cn2ncc(S(=O)(=O)C(C)C)c2CN1C(=O)Nc1ccc(F)c(Cl)c1 (centres unmarked) [Example 12, N-(3-chloro-4-fluoro-phenyl)-3-isopropylsulfonyl-6-methyl-6,7-dihydro-4H-pyrazolo[1,5-a]pyrazine-5-carboxamide]
The EC50 of the first is 1.6-fold higher: 18 nM for the first, 11 nM for the second. The second is the more potent here.

First: CC1Cn2ncc(OC3CCCC3)c2CN1C(=O)Nc1ccc(F)c(Cl)c1 (centres unmarked) [Example 2, N-(3-chloro-4-fluoro-phenyl)-3-(cyclopentoxy)-6-methyl-6,7-dihydro-4H-pyrazolo[1,5-a]pyrazine-5-carboxamide]
Second: C[C@H]1Cn2ncc(OC3CCOCC3)c2CN1C(=O)Nc1ccc(F)c(Cl)c1 [Example 4, (6S)-N-(3-chloro-4-fluoro-phenyl)-6-methyl-3-tetrahydropyran-4-yloxy-6,7-dihydro-4H-pyrazolo[1,5-a]pyrazine-5-carboxamide]
The EC50 of the first is 13-fold lower: 8 nM for the first, 107 nM for the second.

Compared with `C[C@H]1Cn2ncc(OC3CCOC3)c2CN1C(=O)Nc1ccc(F)c(Cl)c1` (stereo partly drawn) [Example 3, (6S)-N-(3-chloro-4-fluoro-phenyl)-6-methyl-3-tetrahydrofuran-3-yloxy-6,7-dihydro-4H-pyrazolo[1,5-a]pyrazine-5-carboxamide], `CC1Cn2ncc(S(=O)(=O)C3CCOC3)c2CN1C(=O)Nc1ccc(F)c(Cl)c1` (centres unmarked) [Example 10, N-(3-chloro-4-fluoro-phenyl)-6-methyl-3-tetrahydrofuran-3-ylsulfonyl-6,7-dihydro-4H-pyrazolo[1,5-a]pyrazine-5-carboxamide] is 4.7-fold lower in EC50: 151 nM for the first, 32 nM for the second.

`C[C@H]1Cn2ncc(OC3CCNC3=O)c2CN1C(=O)Nc1ccc(F)c(Cl)c1` (stereo partly drawn) [Example 5, (6S)-N-(3-chloro-4-fluoro-phenyl)-6-methyl-3-(2-oxopyrrolidin-3-yl)oxy-6,7-dihydro-4H-pyrazolo[1,5-a]pyrazine-5-carboxamide] and `C[C@H]1Cn2ncc(OC3CCN(S(C)(=O)=O)CC3)c2CN1C(=O)Nc1ccc(F)c(Cl)c1` [Example 6, (6S)-N-(3-chloro-4-fluoro-phenyl)-6-methyl-3-[(1-methylsulfonyl-4-piperidyl)oxy]-6,7-dihydro-4H-pyrazolo[1,5-a]pyrazine-5-carboxamide] are within 1.5-fold of each other in EC50: 434 nM for the first, 310 nM for the second.

Compared with `C[C@H]1Cn2ncc(Oc3ccccn3)c2CN1C(=O)Nc1cc(F)c(F)c(F)c1` [Example 7, (6S)-6-methyl-3-(2-pyridyloxy)-N-(3,4,5-trifluorophenyl)-6,7-dihydro-4H-pyrazolo[1,5-a]pyrazine-5-carboxamide], `C[C@H]1Cn2ncc(Oc3ccc(F)cn3)c2CN1C(=O)Nc1cc(F)c(F)c(F)c1` [Example 9, (6S)-3-[(5-fluoro-2-pyridyl)oxy]-6-methyl-N-(3,4,5-trifluorophenyl)-6,7-dihydro-4H-pyrazolo[1,5-a]pyrazine-5-carboxamide] is 4.1-fold lower in EC50: 984 nM for the first, 240 nM for the second.

First: C[C@H]1Cn2ncc(Oc3ncccn3)c2CN1C(=O)Nc1cc(F)c(F)c(F)c1 [Example 8, (6S)-6-methyl-3-pyrimidin-2-yloxy-N-(3,4,5-trifluorophenyl)-6,7-dihydro-4H-pyrazolo[1,5-a]pyrazine-5-carboxamide]
Second: CC(C)S(=O)(=O)c1cnn2c1CN(C(=O)Nc1cc(F)c(F)c(F)c1)[C@@H](C)C2 [Example 20, (6S)-3-isopropylsulfonyl-6-methyl-N-(3,4,5-trifluorophenyl)-6,7-dihydro-4H-pyrazolo[1,5-a]pyrazine-5-carboxamide]
The EC50 of the first is 34-fold higher: 713 nM for the first, 21 nM for the second. The second is the more potent here.

Going from `CC1Cn2ncc(S(=O)(=O)C3CCCC3)c2CN1C(=O)Nc1ccc(F)c(Cl)c1` (centres unmarked) [Example 11, N-(3-chloro-4-fluoro-phenyl)-3-cyclopentylsulfonyl-6-methyl-6,7-dihydro-4H-pyrazolo[1,5-a]pyrazine-5-carboxamide] to `C[C@H]1Cn2ncc(S(=O)(=O)C3CCOCC3)c2CN1C(=O)Nc1ccc(F)c(Cl)c1` [Example 15, (6S)-N-(3-chloro-4-fluoro-phenyl)-6-methyl-3-tetrahydropyran-4-ylsulfonyl-6,7-dihydro-4H-pyrazolo[1,5-a]pyrazine-5-carboxamide], the EC50 rises from 11 nM to 97 nM (8.8-fold). The first is the more potent here.

Going from `CC(C)CS(=O)(=O)c1cnn2c1CN(C(=O)Nc1ccc(F)c(Cl)c1)C(C)C2` (centres unmarked) [Example 13, N-(3-chloro-4-fluoro-phenyl)-3-isobutylsulfonyl-6-methyl-6,7-dihydro-4H-pyrazolo[1,5-a]pyrazine-5-carboxamide] to `CC(C)NS(=O)(=O)c1cnn2c1CN(C(=O)Nc1ccc(F)c(Cl)c1)[C@@H](C)C2` [Example 25, (6S)-N-(3-chloro-4-fluoro-phenyl)-3-(isopropylsulfamoyl)-6-methyl-6,7-dihydro-4H-pyrazolo[1,5-a]pyrazine-5-carboxamide], the EC50 rises from 24 nM to 82 nM (3.4-fold). The first is the more potent here.

Compared with `C[C@H]1Cn2ncc(S(=O)(=O)C3CCOC3)c2CN1C(=O)Nc1ccc(F)c(Cl)c1` (stereo partly drawn) [Example 14, (6S)-N-(3-chloro-4-fluoro-phenyl)-6-methyl-3-tetrahydrofuran-3-ylsulfonyl-6,7-dihydro-4H-pyrazolo[1,5-a]pyrazine-5-carboxamide], `C[C@H]1Cn2ncc(S(=O)(=O)N[C@H]3CCOC3)c2CN1C(=O)Nc1ccc(F)c(Cl)c1` [Example 26, (6S)-N-(3-chloro-4-fluoro-phenyl)-6-methyl-3-[[(3S)-tetrahydrofuran-3-yl]sulfamoyl]-6,7-dihydro-4H-pyrazolo[1,5-a]pyrazine-5-carboxamide] is 6.6-fold higher in EC50: 55 nM for the first, 365 nM for the second. The first is the more potent here.

`C[C@H]1Cn2ncc(S(=O)(=O)C3CCOC3)c2CN1C(=O)Nc1cc(F)c(F)c(F)c1` (stereo partly drawn) [Example 16, (6S)-6-methyl-3-tetrahydrofuran-3-ylsulfonyl-N-(3,4,5-trifluorophenyl)-6,7-dihydro-4H-pyrazolo[1,5-a]pyrazine-5-carboxamide] and `C[C@H]1Cn2ncc(S(=O)(=O)C3CC3)c2CN1C(=O)Nc1cc(F)c(F)c(F)c1` [Example 22, (6S)-3-cyclopropylsulfonyl-6-methyl-N-(3,4,5-trifluorophenyl)-6,7-dihydro-4H-pyrazolo[1,5-a]pyrazine-5-carboxamide] are within 1.5-fold of each other in EC50: 77 nM for the first, 78 nM for the second.

Compared with `C[C@H]1Cn2ncc(S(=O)(=O)C3CCOC3)c2CN1C(=O)Nc1ccnc(Cl)c1` (stereo partly drawn) [Example 17, (6S)-N-(2-chloro-4-pyridyl)-6-methyl-3-tetrahydrofuran-3-ylsulfonyl-6,7-dihydro-4H-pyrazolo[1,5-a]pyrazine-5-carboxamide], `C[C@H]1Cn2ncc(S(=O)(=O)C3CCCC3)c2CN1C(=O)Nc1ccnc(Cl)c1` [Example 19, (6S)-N-(2-chloro-4-pyridyl)-3-cyclopentylsulfonyl-6-methyl-6,7-dihydro-4H-pyrazolo[1,5-a]pyrazine-5-carboxamide] is 6.5-fold lower in EC50: 871 nM for the first, 134 nM for the second.

Compared with `CC(C)S(=O)(=O)c1cnn2c1CN(C(=O)Nc1ccnc(Cl)c1)[C@@H](C)C2` [Example 18, (6S)-N-(2-chloro-4-pyridyl)-3-isopropylsulfonyl-6-methyl-6,7-dihydro-4H-pyrazolo[1,5-a]pyrazine-5-carboxamide], `CC(C)S(=O)(=O)c1cnn2c1CN(C(=O)Nc1ccnc(C(F)F)c1)[C@@H](C)C2` [Example 21, (6S)-N-[2-(difluoromethyl)-4-pyridyl]-3-isopropylsulfonyl-6-methyl-6,7-dihydro-4H-pyrazolo[1,5-a]pyrazine-5-carboxamide] is 1.7-fold lower in EC50: 471 nM for the first, 272 nM for the second.

First: C[C@H]1Cn2ncc(S(=O)(=O)N3CCCC3)c2CN1C(=O)Nc1ccc(F)c(Cl)c1 [Example 23, (6S)-N-(3-chloro-4-fluoro-phenyl)-6-methyl-3-pyrrolidin-1-ylsulfonyl-6,7-dihydro-4H-pyrazolo[1,5-a]pyrazine-5-carboxamide]
Second: C[C@H]1Cn2ncc(S(=O)(=O)N(C)C)c2CN1C(=O)Nc1ccc(F)c(Cl)c1 [Example 24, (6S)-N-(3-chloro-4-fluoro-phenyl)-3-(dimethylsulfamoyl)-6-methyl-6,7-dihydro-4H-pyrazolo[1,5-a]pyrazine-5-carboxamide]
The EC50 of the first is 1.8-fold lower: 78 nM for the first, 142 nM for the second.

`C[C@H]1Cn2ncc(S(=O)(=O)NC(C)(C)CO)c2CN1C(=O)Nc1cc(F)c(F)c(F)c1` [Example 27, (6S)-3-[(2-hydroxy-1,1-dimethyl-ethyl)sulfamoyl]-6-methyl-N-(3,4,5-trifluorophenyl)-6,7-dihydro-4H-pyrazolo[1,5-a]pyrazine-5-carboxamide] and `C[C@H]1Cn2ncc(S(=O)(=O)N3CC[C@@H](O)C3)c2CN1C(=O)Nc1cc(F)c(F)c(F)c1` [Example 29, (6S)-3-[(3R)-3-hydroxypyrrolidin-1-yl]sulfonyl-6-methyl-N-(3,4,5-trifluorophenyl)-6,7-dihydro-4H-pyrazolol[1,5-a]pyrazine-5-carboxamide] are within 1.5-fold of each other in EC50: 156 nM for the first, 146 nM for the second.

Work on `C[C@H]1Cn2ncc(S(=O)(=O)N3CCC(F)(F)C3)c2CN1C(=O)Nc1cc(F)c(F)c(F)c1` [Example 28, (6S)-3-(3,3-difluoropyrrolidin-1-yl)sulfonyl-6-methyl-N-(3,4,5-trifluorophenyl)-6,7-dihydro-4H-pyrazolo[1,5-a]pyrazine-5-carboxamide] yielded an EC50 of 168 nM.
